From ChEMBL document CHEMBL1201862, “PubChem BioAssay data set” (2004)
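Where inhibition never reached the appropriate level, the endpoint shown equals the highest concentration tested. Otherwise, values were interpolated linearly from a five-concentration, 48-hour dose response in 96-well plates. GI50 is the concentration that inhibits growth by half.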 Active and inactive are the calls of the source. No stated cut-off is given here; in the data, active = GI50 up to about 1.1 µM and inactive = higher.

Columns and labels:
Assay in all cases: growth of human tumour cells (NCI), 48 h
DMS-114 = system: DMS-114
DMS-273 = system: DMS-273
HOP-18 = system: HOP-18
KM-20L2 = system: KM-20L2
M19-MEL = system: M19-MEL
XF498 = system: XF498
Hs-578T = system: Hs-578T
LXFL 529 = system: LXFL 529
RXF 631 = system: RXF 631

CC(=O)C1=C(C)NC2C=CC=CN12 (stereo unspecified)
GI50 (DMS-114): > 100 µM (inactive) | GI50 (DMS-273): > 100 µM (inactive) | GI50 (HOP-18): > 100 µM (inactive) | GI50 (KM-20L2): > 100 µM (inactive) | GI50 (M19-MEL): > 100 µM (inactive) | GI50 (XF498): > 100 µM (inactive)

Cc1c(/C=N/NC(=S)Nc2cccc(Cl)c2)c(=O)n(-c2ccccc2)n1C
GI50 (Hs-578T): 13.9 µM (inactive)

Cn1c(=O)n(CC(Br)CBr)c(=O)n(CC(Br)CBr)c1=O (stereo unspecified)
GI50 (Hs-578T): > 100 µM (inactive)

Cc1ccc(C(=O)N/N=C(\N=N\c2cccc([N+](=O)[O-])c2)c2ccc(N(C)C)cc2)cc1
GI50 (Hs-578T): > 100 µM (inactive)

COc1ccc(C(=O)Cn2c(C(=O)/C=C/c3ccco3)nc3ccccc32)cc1
GI50 (Hs-578T): 25.3 µM (inactive)

O=C(O)c1c[nH]c2c(=O)[nH]cnc12
GI50 (DMS-114): > 100 µM (inactive) | GI50 (HOP-18): > 100 µM (inactive) | GI50 (LXFL 529): > 100 µM (inactive) | GI50 (M19-MEL): > 100 µM (inactive) | GI50 (RXF 631): > 100 µM (inactive)

O=C(Nc1c(Cl)cc([N+](=O)[O-])cc1Cl)/C(=N\Nc1cccc(Cl)c1)c1c(O)c2ccccc2oc1=O
GI50 (DMS-114): 52.7 µM (inactive) | GI50 (KM-20L2): > 100 µM (inactive) | GI50 (M19-MEL): > 100 µM (inactive) | GI50 (RXF 631): 53.6 µM (inactive)

CC(=S)NC=C(C(N)=O)C(N)=O
GI50 (Hs-578T): > 100 µM (inactive)

COC(=O)/N=[N+](\[O-])C(c1ccccc1)c1ccccc1
GI50 (Hs-578T): > 100 µM (inactive)

COc1cc2c(c(O)c1O)C(=O)C1CCC(=O)N1C2c1cccc2ccccc12 (stereo unspecified)
GI50 (Hs-578T): > 50 µM (inactive)

O=S1(=O)N=C(NCc2c[nH]c3ccccc23)N(c2ccccc2)c2ccncc21
GI50 (Hs-578T): 31.7 µM (inactive)

COC(=O)C1C(O)C(C)C(O)C(C)C=C(C)C2=C3C(=C(C)C(=O)c4c(O)c(c(C)c(OC(C)=O)c43)NC(=O)C(C)=C/C=C\C(C)C(O)C(C)C1O)OCO2 (stereo unspecified)
GI50 (Hs-578T): 61.2 µM (inactive)

O=C(O)[C@@H]1NC[C@H]2C(Br)=NO[C@H]21
GI50 (Hs-578T): > 100 µM (inactive)

CNC(=S)/N=c1/sc(NC)nc2sc3c(c12)CCCC3
GI50 (Hs-578T): 29 µM (inactive)

CCCCCCCCCCCCC(O)C(=O)O (stereo unspecified)
GI50 (Hs-578T): > 100 µM (inactive)

COc1cc2c(cc1OC)C(C(CBr)CBr)N(C1CCCC1)CC2 (stereo unspecified)
GI50 (DMS-273): > 100 µM (inactive) | GI50 (KM-20L2): 1.46 µM (inactive) | GI50 (LXFL 529): > 100 µM (inactive) | GI50 (M19-MEL): > 100 µM (inactive) | GI50 (XF498): > 100 µM (inactive)

Cc1[nH]c(=O)[nH]c(=S)c1C(=O)NC(C)(CO)CO
GI50 (Hs-578T): > 100 µM (inactive)

Nc1nc(Cl)cc(OCC2(CO)CC=CC2)n1
GI50 (Hs-578T): > 100 µM (inactive)

CCOC(=O)C1C=C1C(C)(C)O (stereo unspecified)
GI50 (Hs-578T): > 10 µM (inactive)

CCOC(=O)CN(Cn1cncn1)Cn1cncn1
GI50 (DMS-273): 20.5 µM (inactive) | GI50 (HOP-18): 32.8 µM (inactive) | GI50 (KM-20L2): 22.5 µM (inactive) | GI50 (LXFL 529): 40.2 µM (inactive) | GI50 (M19-MEL): 38.7 µM (inactive) | GI50 (XF498): 20.4 µM (inactive)

C#C[C@@]1(O)CCCC2=CC(=O)C[C@]21C
GI50 (DMS-114): > 100 µM (inactive) | GI50 (HOP-18): > 100 µM (inactive) | GI50 (LXFL 529): > 100 µM (inactive) | GI50 (M19-MEL): > 100 µM (inactive) | GI50 (XF498): > 100 µM (inactive)

COC(=O)N/N=C/c1oc(-c2ccccc2)c(-c2ccccc2)c1[N+](=O)[O-]
GI50 (DMS-114): > 100 µM (inactive) | GI50 (DMS-273): > 100 µM (inactive) | GI50 (KM-20L2): > 100 µM (inactive) | GI50 (LXFL 529): > 100 µM (inactive) | GI50 (M19-MEL): > 100 µM (inactive) | GI50 (RXF 631): > 100 µM (inactive) | GI50 (XF498): > 100 µM (inactive)

C[N+](C)(C)CC1CCCCC1O (stereo unspecified)
GI50 (DMS-273): > 100 µM (inactive) | GI50 (HOP-18): 1.28 µM (inactive) | GI50 (KM-20L2): > 100 µM (inactive) | GI50 (LXFL 529): > 100 µM (inactive) | GI50 (M19-MEL): > 100 µM (inactive) | GI50 (RXF 631): > 100 µM (inactive)

CN(C)CCCC12CCCCC1=Nc1ccccc12 (stereo unspecified)
GI50 (Hs-578T): > 100 µM (inactive)

CCCC(C)NC1=C(NC(C)=O)C(=O)c2ccccc2C1=O (stereo unspecified)
GI50 (DMS-273): > 100 µM (inactive) | GI50 (KM-20L2): > 100 µM (inactive) | GI50 (LXFL 529): > 100 µM (inactive) | GI50 (M19-MEL): 62.7 µM (inactive) | GI50 (XF498): > 100 µM (inactive)

CC(=O)NC(CCC(=O)C=[N+]=[N-])C(=O)O (stereo unspecified)
GI50 (Hs-578T): > 100 µM (inactive)

C/C(=N\Nc1nc2ccccc2o1)c1ccncn1
GI50 (Hs-578T): 0.955 µM (active)

N#C[BH2-][n+]1cn(C2CC(OP(=O)(O)OCC3OC(n4cnc5c(N)ncnc54)CC3O)C(CO)O2)c2nc(N)[nH]c(=O)c21 (stereo unspecified)
GI50 (Hs-578T): > 100 µM (inactive)

C=C1C(=O)C=C2C=C3C(=O)C(C)(C)C[C@]3(O)C12C (stereo partly specified)
GI50 (DMS-114): 1.1 µM (active) | GI50 (DMS-273): 5.92 µM (inactive) | GI50 (Hs-578T): 8.22 µM (inactive) | GI50 (LXFL 529): 1.26 µM (inactive) | GI50 (M19-MEL): 5.68 µM (inactive) | GI50 (RXF 631): 16.4 µM (inactive) | GI50 (XF498): 1.85 µM (inactive)

SC1=Nc2ccccc2-c2nc(-c3cccc(Cl)c3)cc(-c3ccccc3)c2C1
GI50 (Hs-578T): 2.05 µM (inactive)

O=c1c(C(c2ccc3ccccc3c2)c2c(O)oc3ccccc3c2=O)c(O)oc2ccccc12
GI50 (Hs-578T): 28.6 µM (inactive)

CC(=O)Nc1ccc(-c2nc3ccccc3s2)cc1O
GI50 (Hs-578T): 50.1 µM (inactive)

COc1ccc(C(=O)c2sc(Nc3ccc(Cl)cc3)nc2N)cc1
GI50 (Hs-578T): 11.2 µM (inactive)

COC(=O)C[S+]([O-])c1ccccc1 (stereo unspecified)
GI50 (DMS-114): 20.8 µM (inactive) | GI50 (DMS-273): 28.9 µM (inactive) | GI50 (LXFL 529): 31.8 µM (inactive) | GI50 (M19-MEL): 30.5 µM (inactive) | GI50 (XF498): 76.7 µM (inactive)

CN1C/C(=C\c2cccs2)C(=O)/C(=C/c2cccs2)C1
GI50 (Hs-578T): > 100 µM (inactive)

CC1=C(CO)C(=O)O[C@@H]([C@@H](C)[C@H]2CC[C@H]3[C@@H]4C[C@H]5O[C@]56[C@@H](O)C=CC(=O)[C@]6(C)[C@H]4CC[C@]23C)C1 [WITHAFERIN A]
GI50 (DMS-114): 0.478 µM (active) | GI50 (DMS-273): 0.405 µM (active) | GI50 (KM-20L2): 0.392 µM (active) | GI50 (LXFL 529): 0.333 µM (active) | GI50 (M19-MEL): 1.5 µM (inactive) | GI50 (XF498): 1.43 µM (inactive)
